Test results: publication PMC10155203 (Molecular Pharmaceutics, 2023)
Values after ≈ are worked out from the molar mass of the structure shown. Read-outs that look alike come from different tables or passages of the source.

Assays:
[1] = Study 2: PPI (rabeprazole) interaction clinical study, single oral dose of encorafenib, plasma PK and safety; type: in vivo, human; conditions: for Tmax: median (range); for Vd/F: read-out: Vz/F; for CL/F: mean ± SD
Procedure: Both studies were conducted at the Celerion Clinical Research Unit in Lincoln, NE. The trial protocols and informed consent documentation were reviewed and approved by the institutional review boards at the center. These studies were conducted in compliance with the ethical principles originating in or derived from the Declaration of Helsinki and in compliance with all International Council for Harmonization Good Clinical Practice Guideline.
The AEs described were consistent with the known safety profile of encorafenib.
Additionally, participants were instructed not to crush, split, or chew the study drug. […]
The actual sample collection times were used for the PK parameter analysis.
The overall safety profile was characterized by laboratory test abnormalities, physical examination, vital signs, ECGs, and AEs. […] Triplicate ECGs were also measured at the end of the studies or upon early termination.
These were back-transformed to obtain the GMRs and corresponding 90% CIs on the original scale. The ratios were expressed as a percentage relative to the reference treatment.

[2] = PBPK modeling in GastroPlus 9.8 (model parameters and predicted absorption); set-up: species or system human; conditions: estimated; increased from GastroPlus default value
Procedure: Simulations were performed using the commercially available PBPK modeling platform GastroPlus 9.8 (Simulations Plus, Inc., Lancaster, CA). Input and final parameters for the model were published by Del Frari et al.[29] […] The fasted, fed, and PPI states were predicted for the encorafenib commercial capsule. All input data for the platform are shown in Table 2 and were based on physicochemical properties of the compound, formulation characteristics and absorption, distribution, metabolism, and excretion properties. […] Related to dissolution, the Johnson model was selected. This model is an extension of the Nernst–Brunner dissolution model and accounts for changing particle radius during dissolution as well as for dissolution of cylindrical particles. […] Gathered information concerning physicochemical and biopharmaceutical properties was obtained in-house. Fasted state physiology in the human GI tract was simulated by selecting the fluid volumes as observed by the magnetic resonance imaging study of Mudie et al.[30] to address biorelevant fluid volumes in the different GI compartments. In the case of the fed state, the stomach transit time was adjusted and optimized to a value of 2.25 h for consistency with the observed PK data, and the physiology was adjusted to fed state conditions (default settings). […]

[3] = tested on: CYP2D6; conditions: cited from earlier work
[4] = Physicochemical and biopharmaceutical properties obtained in-house (PBPK input, experimental data)
Procedure: Simulations were performed using the commercially available PBPK modeling platform GastroPlus 9.8 (Simulations Plus, Inc., Lancaster, CA). Input and final parameters for the model were published by Del Frari et al.[29] […] The fasted, fed, and PPI states were predicted for the encorafenib commercial capsule. All input data for the platform are shown in Table 2 and were based on physicochemical properties of the compound, formulation characteristics and absorption, distribution, metabolism, and excretion properties. […] Related to dissolution, the Johnson model was selected. This model is an extension of the Nernst–Brunner dissolution model and accounts for changing particle radius during dissolution as well as for dissolution of cylindrical particles. […] Gathered information concerning physicochemical and biopharmaceutical properties was obtained in-house. Fasted state physiology in the human GI tract was simulated by selecting the fluid volumes as observed by the magnetic resonance imaging study of Mudie et al.[30] to address biorelevant fluid volumes in the different GI compartments. In the case of the fed state, the stomach transit time was adjusted and optimized to a value of 2.25 h for consistency with the observed PK data, and the physiology was adjusted to fed state conditions (default settings). To simulate PPI conditions, the fasted state physiology was selected (magnetic resonance imaging fluid volumes). However, gastric pH was set to a constant value of pH 7 during the simulation instead of the normal gastric pH of 1.3, as used in the fasted state default settings. […] However, the same results were observed even when the gastric pH was adjusted to a value of 4 or 5 (data not shown).[31] Distribution and clearance parameters were adjusted to reflect a 2-compartmental approach based on the average PK profile of the 100 mg dose as administered in the fasted state to healthy participants (average weight, 83 kg).

[5] = cited from earlier work; for median Tmax: humans, single oral dose
[6] = study 2, encorafenib 100 mg + rabeprazole
[7] = study 2, encorafenib 100 mg + rabeprazole vs alone
[8] = study 2, encorafenib 100 mg alone
[9] = study 2, encorafenib 300 mg alone
[10] = single radiolabeled dose of 100 mg

In the case of `COC(=O)N[C@@H](C)CNc1nccc(-c2cn(C(C)C)nc2-c2cc(Cl)cc(NS(C)(=O)=O)c2F)n1` [encorafenib, Encorafenib], the tolerability ([1]; 300 mg dose compared with 100 mg dose, healthy participants) is reported as “tolerated with more difficulty”, the AUC(0-inf) ([1]; human, plasma, oral, 100 mg) is reported as 4140 ng·h/mL and the AUC(0-t) ([1]; human, plasma, oral, 100 mg) is reported as 4120 ng·h/mL. For the same compound, the Cmax ([1]; human, plasma, oral, 100 mg) was 1040 ng/mL, the Tmax ([1]; human, plasma, oral, 100 mg, study 2, encorafenib 100 mg alone, read-out: Tmax) was 1.5 h and the Vd/F ([1]; human, plasma, oral, 100 mg) was 247 ± 208 L. The half-life ([1]; human, plasma, oral, 100 mg, read-out: t1/2 (converted)) was 7.53 ± 7.58 h, the AUC(0-inf) ([1]; human, plasma, oral, 300 mg) was 14800 ng·h/mL and the AUC(0-t) ([1]; human, plasma, oral, 300 mg) was 14700 ng·h/mL. The Cmax ([1]; human, plasma, oral, 300 mg) was 3900 ng/mL, the Tmax ([1]; human, plasma, oral, 300 mg, study 2, encorafenib 300 mg alone, read-out: Tmax) was 1.5 h and the Vd/F ([1]; human, plasma, oral, 300 mg) was 470 ± 339 L. For the same compound, the half-life ([1]; human, plasma, oral, 300 mg, read-out: t½ (converted)) was 15.9 ± 11.6 h, the Tmax ([1]; human, plasma, oral, study 2, encorafenib 100 mg + rabeprazole, read-out: Tmax) was 2 h and the “changes in vital signs, laboratory values, or ECG measurements” value ([1]; study 2) was “No clinically significant changes”. For the same compound, the “participants reporting feeling hot” value ([1]; study 2) was 53%, the participants reporting flushing ([1]; study 2) was 80% and the participants reporting headache ([1]; study 2) was 93%. The “number of AEs of grade 2/moderate severity” value ([1]; study 2 (headache, nausea, myalgia)) was 3 AEs, the “participants reporting AEs” value [1, 6] was 82% and the “mean change in AUCinf with PPI coadministration” value [1, 7] was < 10%. For the same compound, the “mean change in AUClast with PPI coadministration” value [1, 7] was < 10%, the “mean change in Cmax with PPI coadministration” value [1, 7] was < 10% and the “number of AEs reported” value ([1]; study 2, encorafenib 100 mg + rabeprazole, 11 participants) was 23 AEs. For the same compound, the CL/F [1, 6] was 26.31 ± 9.1417 L/h, the “participants reporting AEs” value [1, 8] was 90% and the “number of AEs reported” value ([1]; study 2, encorafenib 100 mg alone, 10 participants) was 24 AEs. The CL/F [1, 8] was 25.33 ± 8.0601 L/h, the Tmax [1, 8] was 1.503 (1.01, 2.00) h and the “participants reporting AEs” value [1, 9] was 100%. The “number of AEs reported” value ([1]; study 2, encorafenib 300 mg alone, 15 participants) was 106 AEs, the CL/F [1, 9] was 20.59 ± 3.9043 L/h and the “participants who discontinued due to an AE” value ([1]; study 2, of 15 participants) was 1 participants. The “participants reporting AEs” value ([1]; study 2, overall) was 15 of 15, the mean precipitation time [2] was 90000 s and the “share of metabolism by CYP2D6” value [3] was 1%. For the same compound, the BCS class behavior ([4]; amorphous drug in the capsule formulation (amorphous solid dispersion)) was “class 1”, the solubility ([4]; aqueous buffer, at pH 6.8, experimental data, read-out: reference solubility (amorphous)) was 200 µg/mL (≈ 370 µM) and the “amorphous solubility higher than crystalline solubility” value ([4]; at pH 6.8) was 20 fold. The logD ([4]; at pH 6.8, experimental data) was 1.8, the solubility ([4]; at pH 6.8, experimental data, read-out: reference solubility (crystalline)) was 10 µg/mL (≈ 18.5 µM) and the “Biopharmaceutics Classification System (BCS) class” value ([4]; drug substance) was “class 2”. For the same compound, the logP ([4]; experimental data) was 2.59, the particle radius ([4]; experimental data, PBPK input) was 5 μm and the pKa ([4]; experimental data, read-out: pKa (acid)) was 6.97. The pKa ([4]; experimental data, read-out: pKa (base)) was 4.53, the dose proportionality ([5]; dose range of 50 to 700 mg QD after a single dose) was “approximately dose proportional” and the “apparent volume of distribution” value ([5]; geometric mean (coefficient of variation 70%)) was 164 L. The “median Tmax” value ([5]; fasted state) was “approximately 2 h”, the “median Tmax” value ([5]; fed state) was ~4 h and the dose absorbed ([5]; oral) was “at least 86%”. For the same compound, the “administered dose recovered in feces” value [5, 10] was 47%, the “administered dose recovered in feces unchanged” value [5, 10] was 5% and the “administered dose recovered in urine” value [5, 10] was 47%. The “administered dose recovered in urine unchanged” value [5, 10] was 2%.
